The assay deals with SKOV3 xenograft tumor. As to the kind of experiment: In vivo and ex vivo tumor targeting by fluorescence imaging. Set-up: species or system nude mice. The conditions noted are these: i.v. The protocol: Raji lymphoma, MDA-MB-231, and SKOV3 xenograft tumor bearing mice model were established by subcutaneous injection of 1×10^7 cells in 100 μL of Matrigel and PBS (1:1 v/v) at the right or left flank of female nude mice aged 4-6 weeks. […] Then the DiD-DOX co-loaded Rf-containing nanoformulations were filtered with 0.22 am sterile filter. Free DiD in PBS was used as the control group. All the formulations were intravenously injected through tail vein. The mice were anaesthetized and imaged by IVIS® (In vivo Imaging System) 200 (perkinElmer) at 0.5, 1, 2, 4, 8, 24, 48, 72 h different time points with the ex/em 625/700 nm. Finally, the mice were euthanized, tumor and all the major organs were taken out for ex vivo imaging. Living Image software (Caliper Life Sciences) were used to define and measure the fluorescence intensity in the place of interest.
Mice were euthanized in the following day. […] The nuclei were stained by DAPI.

Data on one molecule can be found in patent US11369614B2, “Telodendrimers with riboflavin moieties and nanocarriers and methods of making and using same” (priority 2017, dated 2022).

With `CCCCCCCCCCCCCCCCCCN1/C(=C/C=C/C=C/C2=[N+](CCCCCCCCCCCCCCCCCC)c3ccccc3C2(C)C)C(C)(C)c2ccccc21.[O-][Cl+3]([O-])([O-])[O-]` [free DiD, 1,1′-dioctadecyl-3,3,3,3′,3′-tetramethylindodicarbocyanine perchlorate], the “tumor accumulation (in vivo imaging)” value is on record as “No specific tumor accumulation”.
